The values that follow come from ChEMBL document CHEMBL1132132, “Synthesis of heparin partial structures and their binding activities to platelets” (1999).

The structures appear in SMILES notation.

Type in all cases: functional
The species entered for assay [1] is Homo sapiens. Description: Platelets binding activity relative to heparin was evaluated by competitive binding assay using [3H]-labeled heparin at concentration ~1000 uM.
Assay [2] is filed under the species Homo sapiens. Description: Platelets binding activity relative to heparin was evaluated by competitive binding assay using [3H]-labeled heparin at concentration ~1.2 uM.
For assay [3], the species on record is Homo sapiens. Kind of assay: Platelets binding activity relative to heparin was evaluated by competitive binding assay using [3H]-labeled heparin at concentration ~400 uM.
Assay [4] is filed under the species Homo sapiens. Kind of assay: Platelets binding activity relative to heparin was evaluated by competitive binding assay using [3H]-labeled heparin at concentration ~80 uM.
For assay [5], the species on record is Homo sapiens. Kind of assay: Platelets binding activity relative to heparin was evaluated by competitive binding assay using [3H]-labeled heparin at concentration 0.001 uM.
The species entered for assay [6] is Homo sapiens. Description: Platelets binding activity relative to heparin was evaluated by competitive binding assay using [3H]-labeled heparin at concentration ~1.9 uM.
The species named for assay [7] is Homo sapiens. Description: Platelets binding activity relative to heparin was evaluated by competitive binding assay using [3H]-labeled heparin at concentration ~50 uM.
The species named for assay [8] is Homo sapiens. Description: Platelets binding activity relative to heparin was evaluated by competitive binding assay using [3H]-labeled heparin at concentration ~60 uM.

As to `CO[C@H]1O[C@H](COS(=O)(=O)[O-])[C@@H](O[C@H]2O[C@H](C(=O)[O-])[C@@H](OC)[C@H](O)[C@H]2OS(=O)(=O)[O-])[C@H](O)[C@H]1NS(=O)(=O)[O-].[Na+].[Na+].[Na+].[Na+]`, the Binding in assay [1] is 97%; in assay [2] it was 96%; in assay [3] it was 96%; in assay [4] it was 97%; in assay [5], 115%.

`CO[C@@H]1O[C@H](C(=O)[O-])[C@@H](O[C@H]2O[C@H](COS(=O)(=O)[O-])[C@@H](OC)[C@H](OS(=O)(=O)[O-])[C@H]2NS(=O)(=O)[O-])[C@H](O)[C@H]1OS(=O)(=O)[O-].[Na+].[Na+].[Na+].[Na+].[Na+]`: the Binding in assay [1] stood at 75%; in assay [2] it was 100%; in assay [3], 115%; in assay [4], 100%; in assay [6] it was 98%.

Regarding `CO[C@H]1O[C@H](COS(=O)(=O)[O-])[C@@H](O[C@H]2O[C@H](C(=O)[O-])[C@@H](O[C@H]3O[C@H](COS(=O)(=O)[O-])[C@@H](OC)[C@H](O)[C@H]3NS(=O)(=O)[O-])[C@H](O)[C@H]2OS(=O)(=O)[O-])[C@H](O)[C@H]1NS(=O)(=O)[O-].[Na+].[Na+].[Na+].[Na+].[Na+].[Na+]`, the Binding in assay [1] was 97%; in assay [7] it was 105%; in assay [2], 105%; in assay [3], 100%; in assay [6], 105%.

Consider `CO[C@H]1O[C@H](CO)[C@@H](O[C@H]2O[C@H](C(=O)[O-])[C@@H](OC3O[C@H](COS(=O)(=O)[O-])[C@@H](OC)[C@H](O)[C@H]3NS(=O)(=O)[O-])[C@H](O)[C@H]2OS(=O)(=O)[O-])[C@H](O)[C@H]1NS(=O)(=O)[O-].[Na+].[Na+].[Na+].[Na+].[Na+]` (stereo not given in full), for which the Binding stood at 110% in assay [1]; 100% in assay [2]; 110% in assay [3]; 105% in assay [8]; 100% in assay [6].
